# Source: ChEMBL document CHEMBL1153656, “Synthesis of homochiral potassium channel openers: role of the benzopyranyl 3-hydroxyl group in cromakalim and pyridine N-oxides in determining the biological activities of enantiomers” (Bioorg Med Chem Lett, 1992)
# Organism: Rattus norvegicus
# Assay: The concentration of test substance producing half maximal reduction of the contraction evoked by 20 mM KCI in rat hepatic portal veins.
# Type: functional
# Details: not given
row,IC50 [nM],Structure (SMILES)
1,6600,CC1(C)Oc2ccc(C#N)cc2[C@H](N2CCCC2=O)[C@H]1O [(-)-CROMAKALIM]
2,74,"CC1(C)Oc2ccc(C#N)cc2[C@H](N2CCCC2=O)[C@H]1O (single isomer, unassigned) [(-)-CROMAKALIM]"

# Same assay, conditions: Rattus norvegicus
row,Structure (SMILES),IC50 [nM]
1,CC1(C)C[C@@H](N2CCCC2=O)c2cc(C#N)ccc2O1,520
2,CC1(C)C[C@H](N2CCCC2=O)c2cc(C#N)ccc2O1,1150

# Other lines, results leading:
row,IC50 [nM],Structure (SMILES)
1,75,CC1(C)C[C@@H](c2cccc[n+]2[O-])c2cc(C#N)ccc2O1
2,1200,CC1(C)Oc2ccc(C#N)cc2[C@H](c2cccc[n+]2[O-])[C@H]1O
3,100,CC1(C)Oc2ccc(C#N)cc2[C@@H](c2cccc[n+]2[O-])[C@@H]1O
4,210,CC1(C)C[C@H](c2cccc[n+]2[O-])c2cc(C#N)ccc2O1
